Read-outs that look alike come from different tables or passages of the source.
How the values were obtained:
UGT1A6 [1] = biological target: T1, UGT1A6 (Homo sapiens, UniProt P19224); experiment: Glucuronide production in resting S. cerevisiae AH22 cells co-expressing UDPGDH and UGT1A6; assay type: cell-based; set-up: expressed in transfected cells; host or cells: Saccharomyces cerevisiae AH22; conditions: UGT1A6
T1 sequence (P19224 27-532): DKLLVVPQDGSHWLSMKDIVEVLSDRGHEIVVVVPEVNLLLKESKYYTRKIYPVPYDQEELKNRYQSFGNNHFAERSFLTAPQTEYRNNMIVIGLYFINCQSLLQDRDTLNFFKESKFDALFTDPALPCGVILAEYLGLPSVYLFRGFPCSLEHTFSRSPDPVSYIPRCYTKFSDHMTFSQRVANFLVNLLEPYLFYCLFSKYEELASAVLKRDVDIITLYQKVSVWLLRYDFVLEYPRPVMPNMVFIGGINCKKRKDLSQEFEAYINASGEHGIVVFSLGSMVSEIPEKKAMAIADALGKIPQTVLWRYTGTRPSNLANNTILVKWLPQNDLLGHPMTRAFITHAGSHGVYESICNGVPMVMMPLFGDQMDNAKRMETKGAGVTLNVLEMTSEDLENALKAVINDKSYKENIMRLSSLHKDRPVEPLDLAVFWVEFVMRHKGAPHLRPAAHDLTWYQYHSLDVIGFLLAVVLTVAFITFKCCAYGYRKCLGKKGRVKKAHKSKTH
Experimental: Each phase was analyzed by UPLC system.
Time course of conversion in the transformant with the highest activity of glucuronidation (AH22: pAUR/At.UDPGDH+pGYR/hUGT1A6) was examined (FIG. 6).
Glucose concentration dependence of conversion in the transformant with the highest activity of glucuronidation (AH22: pAUR/At.UDPGDH+pGYR/hUGT1A6) was examined (FIG. 7).

hUGT1A1 = biological target: T2, hUGT1A1 (Homo sapiens, UniProt P22309); experiment: Glucuronide production in resting S. cerevisiae AH22 cells co-expressing UDPGDH and UGT1A1; conditions: UGT1A1
T2 sequence (P22309 28-533): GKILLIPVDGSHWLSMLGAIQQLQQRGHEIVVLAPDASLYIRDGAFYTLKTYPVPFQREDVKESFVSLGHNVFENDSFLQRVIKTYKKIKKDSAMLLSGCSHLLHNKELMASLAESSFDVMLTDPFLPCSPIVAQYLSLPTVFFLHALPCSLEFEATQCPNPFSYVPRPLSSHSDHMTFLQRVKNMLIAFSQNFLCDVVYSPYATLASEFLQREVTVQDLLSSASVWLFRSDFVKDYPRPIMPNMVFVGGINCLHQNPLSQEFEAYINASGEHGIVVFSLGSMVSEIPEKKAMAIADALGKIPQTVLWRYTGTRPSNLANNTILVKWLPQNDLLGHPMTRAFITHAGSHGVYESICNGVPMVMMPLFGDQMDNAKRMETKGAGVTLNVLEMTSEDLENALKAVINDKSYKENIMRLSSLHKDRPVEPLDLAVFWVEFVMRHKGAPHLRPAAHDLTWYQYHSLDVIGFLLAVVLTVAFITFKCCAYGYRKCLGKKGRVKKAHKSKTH
Experimental: To confirm the production of 7-hydroxycoumarine glucuronide in the resting yeast cells containing UDPGDH and UGT, transformants were cultivated in selection medium at 30° C., 48 hrs, and the resultant yeast cells were suspended with appropriate buffer solution containing 0.1-1 mM 7-hydroxycoumarine and 1-8% (w/v) glucose. After incubation at 30° C., 24 hrs, 2-fold volume of chloroform:methanol (3:1, v/v) was added to reaction medium containing yeast cells. Centrifugation of extracts was separated to upper water and lower organic phase. Lower organic phase were evaporated and redissolved in 200 μl acetonitrile. Each phase was analyzed by UPLC system. Condition of analysis are described below; column: Cosmosil 2.5C18-MS-II (2.0 mm×100 mm, nacalai tesque), flow rate 0.5 ml/min, detection 320 nm, temperature 45° C. Condition of gradient elution: water-acetonitrile with 0.5% (v/v) trifluoroacetic acid, 10% (v/v) acetonitrile (4 min), 10-70% acetonitrile (6 min), 70-10% acetonitrile (2 min), 10% acetonitrile (4 min).
To confirm the production of quercetin glucuronide in the resting yeast cells containing UDPGDH and UGT (pAUR/At.UDPGDH+pGYR/hUGT1A1), transformants were cultivated in selection medium at 30° C., 48 hrs, and the resultant yeast cells were suspended with 0.1 M potassium phosphate buffer (pH 7.4) containing 0.2 mM quercetin and 8% (w/v) glucose. After incubation at 30° C., 24 hrs, 2-fold volume of chloroform:methanol (3:1, v/v) was added to reaction medium containing yeast cells. Centrifugation of extracts was separated to upper water and lower organic phase. Lower organic phase were evaporated and redissolved in 200 μl acetonitrile. Quercetin glucuronides in yeast cells was isolated and detected by WAKOPAK™ Navi C30-5 (3 mm×150 mm, Wako Chemical)-column-HPLC system with followed condition; flow rate; 0.4 ml/min, detection; 370 nm, temperature 37° C. Condition of gradient elution: water-acetonitrile with 0.5% (v/v) phosphoric acid, 18% (v/v) acetonitrile (10 min), 18-55% acetonitrile (10 min), 55% acetonitrile (5 min).
To compare the production ability of glucuronide in budding (Saccharomyces cerevisiae) and fission yeast (Schizosaccharomyces pombe) containing UDPGDH and UGT, several transformants (No. 4 in Table 2 and transformant with N-terminal modified UGT1A1) were selected for the assay. These transformants were cultivated in selection medium at 30° C., 48 hrs, and the resultant yeast cells were suspended with appropriate buffer solution containing 0.5 mM 4-methylumberrferone and 8% (w/v) glucose. After incubation at 30° C., 24 hrs, 2-fold volume of chloroform:methanol (3:1, v/v) was added to reaction medium containing yeast cells. Centrifugation of extracts was separated to upper water and lower organic phase. Lower organic phase were evaporated and redissolved in 200 μl acetonitrile. Each phase was analyzed by UPLC system.
Condition of analysis are described below; column: COSMOSIL™ 2.5C18-MS-II (2.0 mm×100 mm, Nacalai Tesque), flow rate 0.5 ml/min, detection 320 nm, temperature 45° C. Condition of gradient elution: water-acetonitrile with 0.1% (v/v) trifluoroacetic acid, 10% acetonitrile (4 min), 10-70% acetonitrile (6 min), 70-10% acetonitrile (2 min), 10% acetonitrile (3 min).

UGT1A1 = biological target: T3, UGT1A1 (Homo sapiens, UniProt P22309); conditions: fission yeast, Dragan et al.; cited from earlier work
T3 construct: host or cells: Schizosaccharomyces pombe
T3 sequence (P22309 26-533): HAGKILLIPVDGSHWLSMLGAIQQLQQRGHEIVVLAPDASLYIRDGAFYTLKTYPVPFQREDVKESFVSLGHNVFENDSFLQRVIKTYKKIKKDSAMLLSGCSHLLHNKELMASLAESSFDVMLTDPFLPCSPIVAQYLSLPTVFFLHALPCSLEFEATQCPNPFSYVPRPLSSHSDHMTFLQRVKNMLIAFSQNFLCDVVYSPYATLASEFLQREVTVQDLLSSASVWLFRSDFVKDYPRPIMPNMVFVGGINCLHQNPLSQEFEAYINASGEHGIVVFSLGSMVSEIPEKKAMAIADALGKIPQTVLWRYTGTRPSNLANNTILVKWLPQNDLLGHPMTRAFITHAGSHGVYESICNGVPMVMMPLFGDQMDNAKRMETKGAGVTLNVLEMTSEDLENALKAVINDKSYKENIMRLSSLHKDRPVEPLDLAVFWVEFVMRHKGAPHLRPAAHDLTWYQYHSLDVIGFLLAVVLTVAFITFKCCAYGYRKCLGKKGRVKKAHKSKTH

UGT1A6 [2] = biological target: T1, UGT1A6; set-up: host or cells: Schizosaccharomyces pombe; conditions: fission yeast, Dragan et al.; cited from earlier work
ratCYP1A1 and UGT1A6 = biological target: T4, ratCYP1A1 and UGT1A6 (UniProt P00185+P19224); experiment: Resting yeast cells co-expressing UDPGDH, UGT1A6 and rat CYP1A1; assay type: cell-based; conditions: 1 mM 7-ethoxycoumarine, 8% glucose, 30° C., 72 hrs
T4 construct: expressed in transfected cells; host or cells: Saccharomyces cerevisiae AH22
T4 sequence (P00185 2-524): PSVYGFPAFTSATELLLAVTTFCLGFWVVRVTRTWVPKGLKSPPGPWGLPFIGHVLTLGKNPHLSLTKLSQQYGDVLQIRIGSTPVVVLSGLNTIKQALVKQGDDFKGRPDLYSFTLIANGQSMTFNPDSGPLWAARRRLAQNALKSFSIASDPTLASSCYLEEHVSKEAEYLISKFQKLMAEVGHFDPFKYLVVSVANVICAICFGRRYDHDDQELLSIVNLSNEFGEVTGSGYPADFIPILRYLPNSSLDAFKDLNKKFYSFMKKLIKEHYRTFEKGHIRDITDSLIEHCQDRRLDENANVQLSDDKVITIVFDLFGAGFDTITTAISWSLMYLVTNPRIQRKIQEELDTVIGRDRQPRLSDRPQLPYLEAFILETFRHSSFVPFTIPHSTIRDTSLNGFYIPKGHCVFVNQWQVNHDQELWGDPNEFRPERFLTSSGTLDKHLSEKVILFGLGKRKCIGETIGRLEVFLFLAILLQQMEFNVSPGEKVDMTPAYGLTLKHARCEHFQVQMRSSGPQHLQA
T4 sequence (P19224 27-532): T1 sequence (P19224 27-532)
Text: In the precursor of most glucuronide, hydroxyl groups are introduced by P450-dependent monooxynenation. To analyze the structure and function of these xenobiotic metabolizing enzymes the expression system of several mammalian P450 and UGT isoforms was constructed in budding yeast cells, Saccharomyces cerevisiae AH22. This in vitro system is able to convert 7-ethoxycoumarine to its glucuronide via hydroxyl intermediate, 7-hydroxycoumarine (Ref 6). Yeast cells lack the ability of production of UDP-glucuronic acid (UDP-GlcUA) from UDP-glucose to synthesize the glucuronide in whole cells. To achieve the sequential production of hydroxyl intermediate and glucuronidation, co-expression yeast system containing UDPGDH, UGT, and P450 was constructed using combination of expression vectors (pAUR-At.UDPGDH/UGT1A6 and pGYR/ratCYP1A1, No. 5 in Table 2). […] Each phase was analyzed by UPLC system (FIG. 13).

CYP2D6 and UGT1A8 = biological target: T5, CYP2D6 and UGT1A8 (Homo sapiens, UniProt P10635); experiment: Resting yeast cells with UDPGDH, human UGT and human P450; assay type: cell-based; conditions: human P450 2D6 and human UGT1A8; 1 mM 7-ethoxycoumarine
T5 construct: expressed in transfected cells; host or cells: Saccharomyces cerevisiae
Experimental: To achieve the sequential production of hydroxyl intermediate and glucuronidation, co-expression yeast system containing UDPGDH, UGT, and P450 was constructed using combination of expression vectors (pAUR-ratUDPGDH/UGT1A6 and pPYR/humanCYP).
Each phase was analyzed by UPLC system (FIG. 15 and Table 7).
FIG. 15 indicated reverse phase HPLC elution pattern of metabolites from 7-ethoxycoumarine using resting yeast cells containing UDPGDH, human UGT1A8, and human P450 2D6. […] Each hydroxyl intermediates further were metabolized to corresponding glucuronides by human UGT1A8.

[3] = budding yeast, 0.5 mM 4-methylumberrferone, 8% (w/v) glucose, 30° C., 24 hrs

T5 sequence (P10635 whole entry): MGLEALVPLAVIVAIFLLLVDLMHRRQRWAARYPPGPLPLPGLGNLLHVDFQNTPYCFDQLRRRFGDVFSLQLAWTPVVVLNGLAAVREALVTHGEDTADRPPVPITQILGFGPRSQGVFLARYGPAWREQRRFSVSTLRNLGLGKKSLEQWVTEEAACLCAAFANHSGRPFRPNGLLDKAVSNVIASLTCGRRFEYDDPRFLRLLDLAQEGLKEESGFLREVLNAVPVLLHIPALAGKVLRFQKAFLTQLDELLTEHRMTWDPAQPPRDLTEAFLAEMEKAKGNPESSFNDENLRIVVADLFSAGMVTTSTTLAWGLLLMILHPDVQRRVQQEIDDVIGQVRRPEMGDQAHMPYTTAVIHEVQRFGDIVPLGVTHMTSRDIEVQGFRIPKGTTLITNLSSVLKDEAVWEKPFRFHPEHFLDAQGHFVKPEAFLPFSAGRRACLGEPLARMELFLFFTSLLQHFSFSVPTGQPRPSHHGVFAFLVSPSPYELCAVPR

## Cc1cc(=O)oc2cc(O[C@@H]3O[C@H](C(=O)O)[C@@H](O)[C@H](O)[C@H]3O)ccc12.O [4-metylumberrferone glucuronide, 4-methylumberrferone glucuronide]
UGT1A6 [1]
  production ratio of glucuronide, budding yeast higher than fission yeast: 50
UGT1A6 [1]; [3]
  production of glucuronide: 195.7 µM/day
hUGT1A1
  production ratio of glucuronide, budding yeast higher than fission yeast: 10
hUGT1A1; budding yeast
  production of glucuronide per biomass dry weight: 2.6 µmol/day/g dry weight
hUGT1A1; [3]
  production of glucuronide: 20.2 µM/day
UGT1A1
  production of glucuronide: 1.8 µM/day
  production of glucuronide per biomass dry weight: 0.14 µmol/day/g dry weight
UGT1A6 [2]
  production of glucuronide: 3.5 µM/day

## CCOc1ccc2ccc(=O)oc2c1 [7-ethoxycoumarine]
ratCYP1A1 and UGT1A6
  sequential P450-UGT metabolism (FIG. 13): deethylated by P4501A1 and the resultant 7-hydroxycoumarine (●) was glucuronidated by UGT1A6 to its glucuronide
CYP2D6 and UGT1A8
  metabolites formed (FIG. 15): metabolized to 7-hydroxycoumarine or 3-hydroxy-7-ethoxycoumarine by human P450 2D6

Source: patent publication US8741602B2, “Method for producing glucuronic acid conjugate using Saccharomyces cerevisiae” (Toyama Prefecture, priority 2010, dated 2014)
